The values below come from patent publication US20250114511A1, “BLOOD PERFUSION DEVICE TO REDUCE SECONDARY INFECTION IN HOSPITAL” (SEOUL NATIONAL UNIVERSITY R&DB FOUNDATION, priority 2022, published 2025).

In one assay the test system is FPR1. The assay is described as follows: FPR1 expression on PMN membranes by flow cytometry. In kind it is cell-based, human. As to conditions: 100 nM ND6 for 30 minutes. The protocol: FPR1 expression on PMN membranes and the amount of CaMK2 in the homogenized PMN pellet were also detected by flow cytometry. In order to detect FPR1 on PMN membranes, PMNs (1.0×10^6 in 200 μL) were incubated with FITC-conjugated anti-human FPR1 antibody (2 μL, FAB3744F, R&D Systems, Minneapolis, MN) for 30 minutes at room temperature in the dark. FITC-conjugated mouse IgG2a, κ isotype control antibody (400210, BioLegend, San Diego, CA) was used as a negative control. After washing twice, fluorescence was measured. APC-conjugated anti-CaMK2 antibody (2 μL, ab225178, Abcam, Cambridge, UK) was used to detect the amount of CaMK2 in 200 μL of homogenized PMN pellet obtained by homogenization of 1.0×10^6/l mL PMN for 30 seconds at 4° C. and centrifugation at 20,000 g for 10 minutes. FPR1 expression in PMN membranes and the amount of CaMK2 in homogenized PMN pellets were quantified as mean fluorescence intensity (MFI) by using FlowJo version 10.0 (FlowJo, LLC, Ashland, OR). At least three independent experiments were performed.
In general terms: A flow cytometer gives signals particle by particle.

The test system of assay [1] is human polymorphonuclear cells (PMN).
Experimental: PMN chemotaxis was assessed by using multiScreen 96-well plates consisting of a 3-μm pore membrane (MAMIC3S10, Merck Millipore, Darmstadt, Germany). After preplanned treatment with ND6 or patient plasma, isolated human PMNs were centrifuged at 200 g for 10 minutes at 4° C. Afterwards, the PMN pellet was resuspended in Dulbecco's modified Eagle medium (DMEM, 11885-084, Thermo Fisher) containing 10% fetal bovine serum (FBS, F2442, Sigma-Aldrich). Before use, FBS was inactivated by heating at 56° C. for 1 hour. PMNs were placed in the upper chamber of the plate (0.1×10^6 PMNs at 75 μL per well), and medium containing 100 nM fMLF was placed in the lower chamber (150 μL per well). In medium without ND6 or fMLF, 0.1% DMSO was added.
Plates were incubated for 60 minutes in an incubator at 37° C. with 5% carbon dioxide (CO2). […] Afterwards, the contents were transferred to a 96-well plate, and fluorescence was measured at an excitation/emission wavelength of 480/520 nm with a cut-off of 515 nm. The number of migrated PMNs was calculated by using a standard curve derived from known PMN numbers. […]
After exposure to 100 nM ND6 for 30 minutes, PMNs were centrifuged at 220 g for 10 minutes at 4° C., and the supernatant was discarded. […] PMN chemotaxis at 30 and 90 minutes was measured as the number of PMNs migrated during 60-minute incubation between 30 and 90 minutes and 90 and 150 minutes, respectively.
Assay [2] has as its target T1, formyl peptide receptor 1 (FPR1) (Homo sapiens, UniProt P21462).
T1 sequence (P21462 1-350): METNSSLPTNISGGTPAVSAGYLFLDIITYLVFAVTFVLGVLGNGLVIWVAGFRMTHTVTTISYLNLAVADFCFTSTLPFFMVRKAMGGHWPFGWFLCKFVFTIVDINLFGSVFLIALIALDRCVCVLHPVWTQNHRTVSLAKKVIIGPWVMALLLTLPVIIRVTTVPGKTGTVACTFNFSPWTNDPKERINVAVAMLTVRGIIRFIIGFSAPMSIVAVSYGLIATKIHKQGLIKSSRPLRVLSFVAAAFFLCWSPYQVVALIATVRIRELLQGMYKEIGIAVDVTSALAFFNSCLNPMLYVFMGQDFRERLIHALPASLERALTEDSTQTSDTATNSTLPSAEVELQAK
Briefly: PMN intracellular calcium mobilization (ER calcium depletion and calcium influx, fura2-AM). (In general: A change in cytosolic calcium serves as a functional read-out for many receptors and channels.)
Experimental: Calcium mobilization within PMN cells was measured according to the following method. The separated PMN pellet was resuspended in pH 7.4 hydroxyethyl piperazine ethane sulfonic acid (HEPES) buffer solution. This HEPES buffer solution includes 20 mM HEPES, 140 mM NaCl, 5 mM potassium chloride (KCl), 1 mM magnesium chloride (MgCl2), 1 mM calcium chloride (CaCl2)), 10 mM glucose and 0.1% bovine serum albumin (BSA, A2058 Sigma-Aldrich). PMNs were loaded with fura2-AM (F1221, Thermo Fisher, Waltham, MA) for 45 minutes at 37° C.
Fluorescence was measured at 505 nm with 340/380 nm dual-wavelength excitation at 37° C. by using a spectrofluorometer (FluoroMax Plus-C, Horiba, Ltd., Kyoto, Japan). For the quantitative measurement of endoplasmic reticulum (ER) calcium depletion, PMNs were centrifuged at 200 g for 10 minutes at 4° C. PMN pellets were then resuspended in a calcium-free HEPES buffer solution including 0.3 mM ethylene glycol-bis(2-aminoethylether)-N,N,N′,N′-tetraacetic acid (EGTA, E3889, Sigma-Aldrich, St. Louis, MO), and stimulated with ND6 and fMLF or with ND6 alone. 0.1% dimethyl sulfoxide (DMSO) was added to the medium without ND6 or fMLF. After endoplasmic reticulum calcium was depleted, 1.8 mM CaCl2) was added to induce cytoplasmic calcium influx. Endoplasmic reticulum calcium depletion and calcium influx were assessed by measuring the 340 nm/380 nm ratio and quantified as AUC over 150 seconds (AUC150) and AUC over 100 seconds (AUC100), respectively. […]
In order to investigate which steps of intracellular calcium mobilization stimulated by FPR1 agonists directly correlate with PMN chemotaxis, the inventors of the present disclosure quantitatively measured the amounts of endoplasmic reticulum (ER) calcium depletion and subsequent calcium influx into the cytoplasm in isolated human PMNs obtained from healthy volunteers. […] The area under the curve (AUC) of ER calcium depletion over 150 seconds was calculated to quantify the amount of ER calcium depletion stimulated by ND6 (AUC150 primary) and fMLF (AUC150 secondary), respectively. […]

The test system of assay [3] is human polymorphonuclear cells (PMN). Conditions: previous studies of the inventors; cited from earlier work.
Assay [4] relates to PMNs isolated from septic shock patients with secondary infection. The assay is described as follows: Chemotaxis to 100 nM fMLF of PMNs from septic shock patients with secondary infection exposed to their own plasma. As to conditions: 50 pg/mL recombinant LTB4 added to bead-anti-mtFP mixture treated plasma, 90 minutes. In kind it is cell-based, human.
For assay [5], the system named is PMNs isolated from healthy volunteers. The assay is described as follows: Chemotaxis to 100 nM fMLF of healthy volunteer PMNs exposed to septic shock patient plasma. The class given is cell-based, human. Conditions: 10 μM CsH. The protocol:
The effect of bead-anti-mtFP mixture treatment on PMN chemotaxis rescue was analyzed. PMS was isolated from blood samples obtained from healthy volunteers and exposed to untreated plasma from septic shock patients for 30 minutes in a 10-rpm rotator at 37° C. […] In order to estimate the capacity of non-FPR1-mediated PMN chemotaxis, separate PMNs exposed to bead anti-mtFP mixture-treated plasma were pretreated with 10 μM CsH 15 minutes prior to the chemotaxis experiment.
The inventors of the present disclosure investigated the chemotactic restoration effect of the anti-mtFP cocktail on PMNs by exposing PMNs from healthy volunteers to the plasma of septic shock patients treated with the anti-mtFP cocktail and then comparing PMN chemotaxis with plasma that had not received the anti-mtFP cocktail treatment.

Entries after “also recorded” stand apart in the source; their conditions may differ. Where two headings read alike, the source gives them in different places.

“N-formyl-methionine-methionine-tyrosine-alanine-leucine-phenylalanine [ND6]”: the “FPR1 expression in PMN membranes (MFI)” value in the assay with FPR1 is recorded as “reduced FPR1 expression”. The “PMN chemotaxis in response to 100 nM fMLF” value in assay [1] (100 nM ND6 for 30 minutes) was “inhibited”; in assay [1] (ND6-treated PMNs, 100, 10, 5 nM) it was “dose-dependently inhibited”. Also, the “ER calcium depletion and calcium influx in response to 100 nM fMLF” value in assay [2] (100 nM ND6 for 30 minutes or more) was “inhibited; also recorded: did not completely inhibit”. Moreover, the “inhibition of fMLF-stimulated secondary ER calcium depletion and subsequent calcium influx” value in assay [2] (100 nM, 10 nM, 5 nM ND6, then 100 nM fMLF) was “dose-dependently inhibited”.
Regarding “N-formyl-methionine-leucine-phenylalanine [fMLF]”, the “most potent concentration to induce FPR1-mediated PMN chemotaxis” value in assay [3] is on record as 100 nM.
Turning to `CCCCC/C=C\C[C@@H](O)/C=C/C=C/C=C\[C@@H](O)CCCC(=O)O` [recombinant LTB4, leukotriene B4], the results for the “restoration of PMN chemotaxis compared to PMN exposed to untreated plasma” value in assay [4] and in assay [4] (listed as recombinant leukotriene B4 (LTB4)) were “effectively restored PMN chemotaxis” and “significantly restored PMN chemotaxis”, respectively.
On to `C/C=C/C[C@@H](C)[C@@H](O)[C@H]1C(=O)N[C@@H](CC)C(=O)N(C)CC(=O)N(C)[C@@H](CC(C)C)C(=O)N[C@@H](C(C)C)C(=O)N(C)[C@@H](CC(C)C)C(=O)N[C@@H](C)C(=O)N[C@H](C)C(=O)N(C)[C@@H](CC(C)C)C(=O)N(C)[C@@H](CC(C)C)C(=O)N(C)[C@H](C(C)C)C(=O)N1C` [CsH, cyclosporine H], for which, in assay [5], the “chemotaxis of CsH-treated PMNs versus CsH-free PMNs exposed to untreated plasma” value is on record as “not significantly different”.
